In US7439253B2, “Heterocyclic compounds, their preparation and their use as medicaments, in particular as antibacterials and beta-lactamase inhibitors” (Novexel, priority 2002, dated 2008):
Counter-ions that a name gives are not always drawn. Like-named read-outs stand apart in the source and are kept apart here.

Legend:
β-lactamase TEM1 = biological target: T1, β-lactamase TEM1 (Escherichia coli, UniProt P62593); test: β-lactamase inhibiting activity (Nitrocefin hydrolysis); type: biochemical, E. coli 250HT21
T1 construct: The β-lactamases are isolated from bacterial strains resistant to penicillins and to cephalosporins; endogenous in cells; host or cells: E. coli 250HT21 (soluble fraction of French-press lysate, 100 000 G supernatant)
Method: (§1) A. Preparation of the β-lactamases Tem˜1 and P99
(§2) The β-lactamases are isolated from bacterial strains resistant to penicillins and to cephalosporins (Tem1 and P99 are produced by E. coli 250HT21 and E. Cloacae 293HT6, respectively).
(§3) The bacteria are cultured in heart-brain broth at 37 g/l (DIFCO), at 37° C. They are harvested at the end of the exponential phase, cooled and centrifuged. The bacterial pellets are taken up in 50 mM sodium phosphate buffer pH 7.0 and again centrifuged. The bacteria are taken up in two volumes of this same buffer and lyzed by means of a French-Press kept at 4° C. After centrifugation for 1 h at 100 000 G, at 4° C., the supernatants containing the soluble fraction of the bacterial extracts are recovered and frozen at −80° C.
(§4) B. Determination of the β-lactamase Activity
(§5) The method uses, as substrate, Nitrocefin (OXOID), a chromogenic cephalosporin, whose product of hydrolysis by Beta-lactamases is red and absorbs at 485 nm. The β-lactamase activity is kinetically determined by measuring the variation in absorbance at 485 nm resulting from the hydrolysis of the substrate on a plate spectrophotometer (Spectra Max Plus from Molecular Devices). The experiments are performed at 37° C. The quantity of enzyme was normalized and the measurements are performed at the initial speed.
(§6) C. Determination of the β-lactamase Inhibiting Activity
(§7) Two measurements are carried out, without preincubation and with preincubation of the enzyme and of the inhibitor (5 min), in order to test the irreversibility of the reaction. The products are tested at 6 or 8 concentrations in duplicate. The reaction mixture contains 100 μM of Nitrocefin and 50 mM sodium phosphate buffer pH 7.0. D. Calculations of the IC50 Values
(§8) The rates of hydrolysis are measured with and without inhibitor. The concentration of inhibitor which inhibits by 50% the reaction of hydrolysis of Nitrocefin by the enzyme (IC50) is determined. The data processing is carried out with the aid of the GraFit software (Erathycus Software).

β-lactamase P99 = biological target: T2, β-lactamase P99 (Enterobacter cloacae, UniProt P05364); test: biochemical; type: biochemical; conditions: 100 μM Nitrocefin, 50 mM sodium phosphate buffer pH 7.0, 37° C.
T2 construct: The β-lactamases are isolated from bacterial strains resistant to penicillins and to cephalosporins; endogenous in cells; host or cells: E. cloacae 293HT6 (soluble fraction of French-press lysate, 100 000 G supernatant)
Method: as §1, §2, §3, §4, §5, §6, §7, §8

[1] = 100 μM Nitrocefin, 50 mM sodium phosphate buffer pH 7.0, 37° C., read-out: IC50 nM/TEM1

T1 sequence (P62593 24-286 limits assumed): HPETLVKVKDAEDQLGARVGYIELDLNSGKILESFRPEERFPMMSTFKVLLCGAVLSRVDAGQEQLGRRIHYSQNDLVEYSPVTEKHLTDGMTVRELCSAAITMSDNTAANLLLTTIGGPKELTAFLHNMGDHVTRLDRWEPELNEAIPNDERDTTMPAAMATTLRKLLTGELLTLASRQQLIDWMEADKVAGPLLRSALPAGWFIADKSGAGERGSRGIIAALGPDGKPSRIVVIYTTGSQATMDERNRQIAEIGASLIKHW
T2 sequence (P05364 21-381): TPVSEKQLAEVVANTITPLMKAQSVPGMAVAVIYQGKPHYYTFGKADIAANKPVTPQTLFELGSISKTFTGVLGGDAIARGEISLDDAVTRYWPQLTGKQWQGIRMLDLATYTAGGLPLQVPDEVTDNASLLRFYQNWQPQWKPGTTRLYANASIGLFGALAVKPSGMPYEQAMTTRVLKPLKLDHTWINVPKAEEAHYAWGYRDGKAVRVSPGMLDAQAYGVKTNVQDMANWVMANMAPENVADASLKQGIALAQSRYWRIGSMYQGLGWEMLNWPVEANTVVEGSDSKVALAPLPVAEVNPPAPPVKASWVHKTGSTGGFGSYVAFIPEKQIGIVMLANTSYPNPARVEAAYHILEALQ

## NC(=O)[C@@H]1c2sc(-c3ccccc3C(F)(F)F)cc2[C@H]2CN1C(=O)N2OS(=O)(=O)O (relative stereo) [Example 25, Sodium Salt of Trans-4,5,6,8-tetrahydro-6-oxo-5-(sulfoxy)-2-[2-(trifluoromethyl)phenyl]-4,7-methano-7H-thieno[2,3-e][1,3]diazepine-8-carboxamide]
β-lactamase TEM1; [1]
  IC50: 2 nM
β-lactamase P99
  IC50: 6 nM

## CCNC(=O)Oc1ccc2c(c1)[C@@H]1CN(C(=O)N1OS(=O)(=O)O)[C@H]2C(=O)OCC (relative stereo) [Example 38, Sodium Salt of Ethyl Trans-8-[[(ethylamino)carbonyl]oxy]-1,2,3,5-tetrahydro-3-oxo-2-(sulfoxy)-1,4-methano-4H-2,4-benzodiazepine-5-carboxylate]
β-lactamase TEM1; [1]
  IC50: 59 nM
β-lactamase P99
  IC50: 19 nM

## CCOC(=O)C1c2ccc(OC(=O)Nc3ccccc3)cc2C2CN1C(=O)N2OS(=O)(=O)O (stereo not drawn) [Example 37, Sodium Salt of Ethyl Trans-1,2,3,5-tetrahydro-3-oxo-8-[[(phenylamino)carbonyl]oxy]-2-(sulfoxy)-1,4-methano-4H-2,4-benzodiazepine-5-carboxylate]
β-lactamase TEM1
  IC50: 41 nM
β-lactamase P99
  IC50: 21 nM

## COC(=O)C1c2nn(C(N)=O)cc2C2CN1C(=O)N2OS(=O)(=O)O (stereo not drawn) [Example 11, Pyridinium Salt of Methyl Trans-2-(aminocarbonyl)-2,5,6,8-tetrahydro-6-oxo-5-(sulfoxy)-4H-4,7-methanopyrazolo[3,4-e][1,3]diazepine-8-carboxylate]
β-lactamase TEM1
  IC50: 11 nM
β-lactamase P99
  IC50: 39 nM

## NC(=O)[C@@H]1c2c(cnn2-c2ccccc2)[C@H]2CN1C(=O)N2OS(=O)(=O)O (relative stereo) [Example 47, Sodium Salt of trans-4,5,6,8-tetrahydro-6-oxo-1-phenyl-5-(sulfoxy)-1H-4,7-methanopyrazolo[3,4-e][1,3]diazepine-8-carboxamide]
β-lactamase TEM1; [1]
  IC50: 12 nM
β-lactamase P99
  IC50: 3 nM

## COC(=O)[C@@H]1c2c(cnn2C(N)=O)[C@@H]2CN1C(=O)N2OS(=O)(=O)O (relative stereo) [Example 10, Pyridinium Salt of Methyl Trans-1-(aminocarbonyl)-4,5,6,8-tetrahydro-6-oxo-5-(sulfoxy)-1H-4,7-methanopyrazolo[3,4-e][1,3]diazepine-8-carboxylate]
β-lactamase TEM1
  IC50: 12 nM
β-lactamase P99
  IC50: 18 nM

## COc1ccc(Cn2ncc3c2CN2CC3N(OS(=O)(=O)O)C2=O)cc1 (centres unmarked) [Example 18, Sodium Salt of 1,4,5,8-tetrahydro-1-[(4-methoxyphenyl)methyl]-5-(sulfoxy)-6H-4,7-methanopyrazolo[3,4-e][1,3]diazepin-6-one]
β-lactamase TEM1; [1]
  IC50: 5 nM
β-lactamase P99
  IC50: 13 nM
